Measurements taken from PubChem BioAssay AID330 (DTP/NCI, 2004).
Values joined by “and” are separate entries in the source; they are usually repeats but may differ in a detail not shown here. Identical values can stand only once. Inconclusive results and toxic doses are left out.

Tested on: P388 leukemia ip, CD2F1 mice, survival T/C
Assay: NCI In Vivo Anticancer Drug Screen. Data for tumor model P388 Leukemia (intraperitoneal) in CD2F1 (CDF1) mice
Conditions: endpoint: median survival time, higher = longer survival
In short: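 Mice carrying the transplanted tumor received test compound or vehicle. Survival was recorded in each group, and the value is the treated-group measurement divided by that of the vehicle-treated control group.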

[1] = dose: 60.0 mg/kg/injection, schedule: Q01DX005 (ip), vehicle: saline with Tween-80
[2] = dose: 120.0 mg/kg/injection, schedule: Q01DX005 (ip), vehicle: saline with Tween-80
[3] = dose: 240.0 mg/kg/injection, schedule: Q01DX005 (ip), vehicle: saline with Tween-80
[4] = dose: 1.56 mg/kg/injection, schedule: Q01DX009 (ip), vehicle: saline with Tween-80
[5] = dose: 3.12 mg/kg/injection, schedule: Q01DX009 (ip), vehicle: saline with Tween-80
[6] = dose: 6.25 mg/kg/injection, schedule: Q01DX009 (ip), vehicle: saline with Tween-80
[7] = dose: 12.5 mg/kg/injection, schedule: Q01DX009 (ip), vehicle: saline with Tween-80
[8] = dose: 25.0 mg/kg/injection, schedule: Q01DX009 (ip), vehicle: distilled water + Tween-80
[9] = dose: 50.0 mg/kg/injection, schedule: Q01DX009 (ip), vehicle: distilled water + Tween-80
[10] = dose: 100.0 mg/kg/injection, schedule: Q01DX009 (ip), vehicle: distilled water + Tween-80
[11] = dose: 100.0 mg/kg/injection, schedule: Q04DX003 (ip), vehicle: saline with Tween-80
[12] = dose: 200.0 mg/kg/injection, schedule: Q04DX003 (ip), vehicle: saline with Tween-80
[13] = dose: 100.0 mg/kg/injection, schedule: Q01DX009 (ip), vehicle: Klucel (hydroxypropylcellulose) (HPC)
[14] = dose: 200.0 mg/kg/injection, schedule: Q01DX009 (ip), vehicle: Klucel (hydroxypropylcellulose) (HPC)
[15] = dose: 50.0 mg/kg/injection, schedule: Q01DX009 (ip), vehicle: saline with Tween-80
[16] = dose: 100.0 mg/kg/injection, schedule: Q01DX009 (ip), vehicle: saline with Tween-80
[17] = dose: 200.0 mg/kg/injection, schedule: Q01DX009 (ip), vehicle: saline with Tween-80
[18] = dose: 50.0 mg/kg/injection, schedule: Q01DX005 (ip), vehicle: saline with Tween-80
[19] = dose: 100.0 mg/kg/injection, schedule: Q01DX005 (ip), vehicle: saline with Tween-80
[20] = dose: 50.0 mg/kg/injection, schedule: Q01DX005 (ip), vehicle: Klucel (hydroxypropylcellulose) (HPC)
[21] = dose: 100.0 mg/kg/injection, schedule: Q01DX005 (ip), vehicle: Klucel (hydroxypropylcellulose) (HPC)
[22] = dose: 200.0 mg/kg/injection, schedule: Q01DX005 (ip), vehicle: Klucel (hydroxypropylcellulose) (HPC)
[23] = dose: 12.5 mg/kg/injection, schedule: Q01DX009 (ip), vehicle: other
[24] = dose: 50.0 mg/kg/injection, schedule: Q01DX009 (ip), vehicle: Klucel (hydroxypropylcellulose) (HPC)

## Brc1cn2[n+](c1)[B-]n1cc(Br)c[n+]1[B-]2
dose: 15.0 mg/kg/injection, schedule: Q01DX005 (ip), vehicle: saline with Tween-80
  T/C: 100 % of control
dose: 30.0 mg/kg/injection, schedule: Q01DX005 (ip), vehicle: saline with Tween-80
  T/C: 100 % of control
[1]
  T/C: 100 % of control and 101 % of control

## Cn1c(=O)[nH]c(=O)c2nc(-c3ccccc3)cnc21
dose: 100.0 mg/kg/injection, schedule: Q04DX002 (ip), vehicle: Klucel (hydroxypropylcellulose) (HPC)
  T/C: 105 % of control
dose: 400.0 mg/kg/injection, schedule: Q04DX002 (ip), vehicle: Klucel (hydroxypropylcellulose) (HPC)
  T/C: 86 % of control

## COC(=O)c1c(-c2ccc(OC)cc2)c(-c2ccc(OC)cc2)[nH]c(=O)c1C#N
[1]
  T/C: 100 % of control
[2]
  T/C: 100 % of control
[3]
  T/C: 99 % of control

## CN1C=C(c2ccccc2)C=C(c2ccccc2)C1S(=O)(=O)O (centres undefined)
dose: 12.5 mg/kg/injection, schedule: Q01DX005 (ip), vehicle: saline + Tween-80 + alcohol
  T/C: 99 % of control
dose: 25.0 mg/kg/injection, schedule: Q01DX005 (ip), vehicle: saline + Tween-80 + alcohol
  T/C: 96 % of control

## Cc1cc2ccccc2c[n+]1C
[4]
  T/C: 105 % of control
[5]
  T/C: 102 % of control
[6]
  T/C: 96 % of control
[7]
  T/C: 105 % of control
dose: 12.5 mg/kg/injection, schedule: Q04DX003 (ip), vehicle: saline
  T/C: 100 % of control
dose: 25.0 mg/kg/injection, schedule: Q04DX003 (ip), vehicle: saline
  T/C: 100 % of control
dose: 50.0 mg/kg/injection, schedule: Q04DX003 (ip), vehicle: saline
  T/C: 100 % of control

## CCOC(=O)c1ccc(NC(=O)Nc2n[nH]c(NC(=O)Nc3ccc(C(=O)OCC)cc3)n2)cc1
dose: 12.5 mg/kg/injection, schedule: Q01DX009 (ip), vehicle: distilled water + Tween-80
  T/C: 95 % of control
[8]
  T/C: 114 % of control
[9]
  T/C: 89 % of control
[10]
  T/C: 88 % of control

## Nc1c(Cl)c(Cl)cc(Cl)c1Cl
[11]
  T/C: 100 % of control
[12]
  T/C: 104 % of control
dose: 400.0 mg/kg/injection, schedule: Q04DX003 (ip), vehicle: saline with Tween-80
  T/C: 104 % of control

## O=C(N/N=C/c1cccc(O)c1O)N/N=C/c1cccc(O)c1O
[8]
  T/C: 104 % of control and 109 % of control
[9]
  T/C: 109 % of control (2×) and 116 % of control
[10]
  T/C: 118 % of control and 119 % of control
dose: 200.0 mg/kg/injection, schedule: Q01DX009 (ip), vehicle: distilled water + Tween-80
  T/C: 118 % of control and 95 % of control
dose: 400.0 mg/kg/injection, schedule: Q01DX009 (ip), vehicle: distilled water + Tween-80
  T/C: 91 % of control

## CCOC=Nc1c(N)ncnc1Cl
[13]
  T/C: 102 % of control
[14]
  T/C: 105 % of control
dose: 400.0 mg/kg/injection, schedule: Q01DX009 (ip), vehicle: Klucel (hydroxypropylcellulose) (HPC)
  T/C: 106 % of control

## O=c1c2oc3ccccc3c2cnn1CO
[7]
  T/C: 103 % of control and 97 % of control
dose: 25.0 mg/kg/injection, schedule: Q01DX009 (ip), vehicle: saline with Tween-80
  T/C: 100 % of control and 105 % of control
[15]
  T/C: 102 % of control and 108 % of control
[16]
  T/C: 105 % of control and 117 % of control

## CCCCCOC(=O)CC(N)C(=O)OCCCCC (centres undefined)
[15]
  T/C: 100 % of control
[16]
  T/C: 100 % of control
[17]
  T/C: 90 % of control

## C=CCOc1cc2c(cc1C(C)c1ccc(OC)c(C)c1)OCO2 (centres undefined)
[18]
  T/C: 100 % of control
[19]
  T/C: 95 % of control
dose: 200.0 mg/kg/injection, schedule: Q01DX005 (ip), vehicle: saline with Tween-80
  T/C: 120 % of control

## CC1(C)CC(NCCN)=CC(=S)N1
[20]
  T/C: 98 % of control
[21]
  T/C: 98 % of control
[22]
  T/C: 104 % of control

## CCN(CC)C(=O)Oc1cc(C(=O)N(CC)CC)c(OC(=O)N(CC)CC)cc1C(=O)N(CC)CC
[1]
  T/C: 101 % of control
[2]
  T/C: 92 % of control
[3]
  T/C: 89 % of control

## COc1cc2ccc3c[n+](C)ccc3c2cc1OC
dose: 6.25 mg/kg/injection, schedule: Q01DX009 (ip), vehicle: water
  T/C: 101 % of control and 103 % of control
[23]
  T/C: 107 % of control
dose: 12.5 mg/kg/injection, schedule: Q01DX009 (ip), vehicle: water
  T/C: 114 % of control
dose: 25.0 mg/kg/injection, schedule: Q01DX009 (ip), vehicle: other
  T/C: 119 % of control
dose: 25.0 mg/kg/injection, schedule: Q01DX009 (ip), vehicle: water
  T/C: 116 % of control and 122 % of control
dose: 100.0 mg/kg/injection, schedule: Q01DX009 (ip), vehicle: water
  T/C: 108 % of control

## CCCSCN(CC)CC
dose: 50.0 mg/kg/injection, schedule: Q01DX009 (ip), vehicle: saline
  T/C: 95 % of control
dose: 100.0 mg/kg/injection, schedule: Q01DX009 (ip), vehicle: saline
  T/C: 90 % of control
dose: 200.0 mg/kg/injection, schedule: Q01DX009 (ip), vehicle: saline
  T/C: 114 % of control

## c1ccc(CNNc2nn[nH]n2)cc1
dose: 100.0 mg/kg/injection, schedule: Q01DX001 (ip), vehicle: Klucel (hydroxypropylcellulose) (HPC)
  T/C: 96 % of control
dose: 200.0 mg/kg/injection, schedule: Q01DX001 (ip), vehicle: Klucel (hydroxypropylcellulose) (HPC)
  T/C: 95 % of control
dose: 400.0 mg/kg/injection, schedule: Q01DX001 (ip), vehicle: Klucel (hydroxypropylcellulose) (HPC)
  T/C: 96 % of control

## CCN(CC)C(=O)c1c2nc3c(C(=O)N(CC)CC)ccc(C)c3oc-2c(C)c(=O)c1N
[1]
  T/C: 98 % of control
[2]
  T/C: 88 % of control

## CCSc1ncnc2c1ncn2C1OC(CO)C(O)C1O (centres undefined)
[11]
  T/C: 104 % of control
[12]
  T/C: 109 % of control

## CC(=O)NC1=NN(C(C)=O)C(c2ccccc2)S1=O (centres undefined)
[18]
  T/C: 108 % of control
[19]
  T/C: 107 % of control

## CCN(CC)c1c(C)c(-c2ccccc2)oc(=O)c1-c1ccccc1
[24]
  T/C: 105 % of control
[13]
  T/C: 100 % of control
[14]
  T/C: 100 % of control

## COC(=O)CCSC(=O)Nc1cccc(C(F)(F)F)c1
[20]
  T/C: 97 % of control
[21]
  T/C: 98 % of control
[22]
  T/C: 104 % of control

## COC(=O)C1=CO[C@@H](OC2OC(CO)C(O)C(O)C2O)[C@H]2[C@@H]1C=C[C@@]2(O)CO (some centres undefined)
dose: 6.25 mg/kg/injection, schedule: Q01DX009 (ip), vehicle: Klucel (hydroxypropylcellulose) (HPC)
  T/C: 100 % of control
dose: 12.5 mg/kg/injection, schedule: Q01DX009 (ip), vehicle: Klucel (hydroxypropylcellulose) (HPC)
  T/C: 88 % of control
dose: 25.0 mg/kg/injection, schedule: Q01DX009 (ip), vehicle: Klucel (hydroxypropylcellulose) (HPC)
  T/C: 100 % of control
[24]
  T/C: 99 % of control
[13]
  T/C: 107 % of control

## CCC[CH2][Sn]([CH2]CCC)[O][Sn]([Cl])([CH2]CCC)[CH2]CCC
dose: 0.79 mg/kg/injection, schedule: Q01DX009 (ip), vehicle: saline
  T/C: 100 % of control
[4]
  T/C: 100 % of control
dose: 1.56 mg/kg/injection, schedule: Q01DX009 (ip), vehicle: saline
  T/C: 100 % of control
[5]
  T/C: 101 % of control and 113 % of control
dose: 3.12 mg/kg/injection, schedule: Q01DX009 (ip), vehicle: saline
  T/C: 97 % of control
[6]
  T/C: 100 % of control
dose: 6.25 mg/kg/injection, schedule: Q01DX009 (ip), vehicle: saline
  T/C: 88 % of control

## CCn1c2ccc(N)cc2c2c3ncc4cccn4c3ccc21
[1]
  T/C: 88 % of control
[2]
  T/C: 87 % of control

## Cc1cc(NCCCNCCCNc2cc(C)nc3cc(N)ccc23)c2ccc(N)cc2n1
[23]
  T/C: 160 % of control

## N#C/C(=C\c1ccccc1)c1ccc(Cl)cc1
[15]
  T/C: 105 % of control and 97 % of control
[16]
  T/C: 106 % of control and 91 % of control
[17]
  T/C: 113 % of control and 96 % of control
dose: 400.0 mg/kg/injection, schedule: Q01DX009 (ip), vehicle: saline with Tween-80
  T/C: 103 % of control and 97 % of control

## O=C1Nc2ccc(Br)cc2/C1=N/n1c(-c2ccccc2)nc2ccccc2c1=O
[20]
  T/C: 86 % of control
[21]
  T/C: 87 % of control
[22]
  T/C: 100 % of control
